# Measured values taken from patent US20260365991A1, “COMPOUNDS FOR STABILIZING PEPTIDES IN BIOLOGICAL SAMPLES” (Roche Diagnostics Operations, Inc., priority 2023, published 2026).
# What was measured:
# gastrin-17 [1] = experiment: Gastrin-17 stabilization by sulfone compounds in horse serum (Example 3); type: biochemical, human gastrin-17 (GAST_HUMAN) in horse serum; details: for ability to stabilize gastrin-17 in serum / stabilizing effect on gastrin-17 compared with DMSO: 5% [v/v], horse serum, room temperature, 5 h and 24 h
# Description: Gastrin-17 (GAST_HUMAN(77-92)[Pyr-77]amid) was solved in horse serum with a concentration of 2.0 mg/ml and diluted to 0.22 mg/mL.
# This solution was spiked respectively to reach a concentration of gastrin-17 of 0.1 mg/ml in (a) horse serum with added 5% [v/v]H2O; (b) horse serum with added 5% [v/v] DMSO (CAS: 67-68-5); (c) horse serum added 5% [v/v] Sulfolane (CAS: 126-33-0); d) horse serum with added 5% [v/v]trimethylene sulfone (CAS: 5687-92-3); e) horse serum with added 5% [v/v]1,1-dioxoisothiazolidine (CAS: 5908-62-3); f) horse serum with added 5% [v/v]1,4-butanesultone (CAS: 1633-83-6); g) horse serum with added 5% [v/v]tetrahydro-2H-thiopyran-4-ol 1,1-dioxide (CAS: 194152-05-1); h) horse serum with added 5% [v/v]2-methyltetrahydrothiophene 1,1-dioxide (CAS: 1003-46-9); i) horse serum with added 5% [v/v]ethylmethylsulfone (CAS: 594-43-4). The samples were then stored/incubated at room temperature. Samples were taken after 0 h, 5 h and 24 h. The further experiment was performed as described in Example 1.
# [2] = cited from earlier work; for stability against oxidation compared with DMSO: Wasmus S and Vielstich W, Electrochimica Acta 1993
# peptides A, B and C [3] = experiment: Stability of peptides A, B and C in horse serum with 5% additive (Example 1, HPLC-MS); type: biochemical; details: for protection ability on different peptides (A, B, C): room temperature, 0 h, 5 h, 23 h
# Description: (§1) Gastrin-17 (GAST_HUMAN(77-92)[Pyr-77]amid) and MS Qual/Quant QC-Mix (Mat. No.: MSQC2, Sigma Aldrich, a peptide mix comprising peptides A, B and C as referred to herein) was solved in horse serum with a concentration of 2.0 mg/ml and diluted to 0.22 mg/mL.
# (§2) This solution was spiked respectively to reach a final peptide concentration of 0.1 mg/ml in (a) horse serum with added 5% [v/v]H2O; (b) horse serum with added 5% [v/v] DMSO (CAS: 67-68-5); (c) horse serum with added 5% [v/v] Sulfolane (CAS: 126-33-0). The samples were stored at room temperature. Samples were taken at three times after spiking (0 h, 5 h and 23 h) and centrifuged with a Microcon-10 filter (Ultracel PL-10, Regenerated Cellulose 10,000 NMWL) for 10 min at 4 °C and 10,000 rpm. Afterwards the filtrate was separated by a liquid chromatography (HPLC) coupled with MS detector (QTOF Premier, Waters). The separation was done by a reverse phase liquid chromatography (Vydac 218TP C18, 5 μm, 2.1×150 mm, column temperature 50 °C) with a linear gradient to 100% of eluent B over 17 minutes. The eluent A was water with 0.025% [v/v]trifluoroacetic acid and eluent B was acetonitrile with 0.023% [v/v]trifluoroacetic acid. The quantification was done by using […]=1049.9 Da for Gastrin-17, [M+2H]^2+=671.8 Da for peptid A, [M+2H]^2+=751.4 Da for peptid B and [M+2H]^2+=802.9 Da for peptid C. Peptid A, B and C are exemplary peptides contained in the peptid-Mix MS Qual/Quant QC-Mix (Mat. No.: MSQC2, Sigma Aldrich). The peptide mix MS Qual/Quant QC-Mix (Mat. No.: MSQC2, Sigma Aldrich) contained peptides of a length of 4 to 26 amino acids.
# gastrin-17 [4] = experiment: Concentration dependence of gastrin-17 stabilization in horse serum (Example 2); type: biochemical, human gastrin-17 (GAST_HUMAN) in horse serum; details: for concentration dependence of stabilization, gastrin-17 / stabilization of gastrin-17: 1.25%, 2.5% and 5% (v/v); for stabilization of gastrin-17: room temperature, 0 h and 5 h
# Description: (§3) Gastrin-17 (GAST_HUMAN(77-92)[Pyr-77]amid) and MS Qual/Quant QC-Mix (Mat. No.: MSQC2, Sigma Aldrich; comprises peptides A, B and C) was solved in horse serum with a concentration of 2.0 mg/ml and diluted to 0.22 mg/mL.
# (§4) This solution was spiked respectively to reach a concentration of 0.1 mg/ml in (a) horse serum with added 5% [v/v] DMSO (CAS: 67-68-5); (b) horse serum with added 5% [v/v] Sulfolane (CAS: 126-33-0); c) horse serum with added 2.5% [v/v] DMSO (CAS: 67-68-5); d) horse serum with added 2.5% [v/v] Sulfolane (CAS: 126-33-0); e) horse serum with added 1.25% [v/v] DMSO (CAS: 67-68-5); f) horse serum with added 1.25% [v/v] Sulfolane (CAS: 126-33-0); The samples were stored at room temperature. A sample was taken 0 h and 5 h after spiking. The further experiment was conducted as described in Example 1.
# gastrin-17 [5] = experiment: Gastrin-17 stability in horse serum with 5% additive (Example 1, HPLC-MS); type: biochemical, human gastrin-17 (GAST_HUMAN) in horse serum; details: for protection ability on gastrin-17: room temperature, 0 h, 5 h, 23 h
# Description: as §1, §2
# peptides A, B and C [6] = experiment: Concentration dependence of stabilization of peptides A, B and C in horse serum (Example 2); type: biochemical; details: for concentration dependence of stabilization, peptides A, B and C / stabilization of peptides A, B and C: 1.25%, 2.5% and 5% (v/v); for stabilization of peptides A, B and C: room temperature, 0 h and 5 h
# Description: as §3, §4
# [7] = 5% [v/v], especially after longer incubation (23 h)
structure (smiles),measurement,setting,value
CCS(C)(=O)=O [ethylmethylsulfone],ability to stabilize gastrin-17 in serum,gastrin-17 [1],have the ability to stabilize peptides
same,stabilizing effect on gastrin-17 compared with DMSO,gastrin-17 [1],superior to the DMSO stabilizing effect
same,stability against oxidation compared with DMSO,[2],more stable against oxidation than DMSO
O=S1(=O)CCCC1 [Sulfolane],"protection of peptides A, B, C compared with DMSO","peptides A, B and C [3]; [7]",exceeds the DMSO protection outcome
same,"protection ability on different peptides (A, B, C)","peptides A, B and C [3]; 5% [v/v]",both exhibit protection ability
same,"signal stability over time (MassSpec peak area), peptides A, B and C","peptides A, B and C [3]; FIG. 2, 5% [v/v] vs no additive and 5% DMSO",better signal stability over time
same,"concentration dependence of stabilization, gastrin-17",gastrin-17 [4]; 5 h,stabilization increased with the concentration
same,stabilization of gastrin-17,gastrin-17 [4],stabilized each of the peptides
same,"overall stabilization compared with DMSO, gastrin-17","gastrin-17 [4]; 1.25-5% (v/v), 5 h",overall better peptide stabilization ability
same,stability improvement (MassSpec peak area),"gastrin-17 [4]; FIG. 3, 5% vs 2.5% and 1.25% sulfolane or DMSO, legend says only ""Peptide""",improves stability best
same,ability to stabilize gastrin-17 in serum,gastrin-17 [1],have the ability to stabilize peptides
same,stabilizing effect on gastrin-17 compared with DMSO,gastrin-17 [1],superior to the DMSO stabilizing effect
same,protection of gastrin peptide over a longer period compared with DMSO,"gastrin-17 [1]; ca. 24 h, similar concentrations like DMSO, serum derived degradation",can protect the Gastrin Peptide better over a longer period
same,protection of gastrin-17 compared with DMSO,gastrin-17 [5]; [7],exceeds the DMSO protection outcome
same,protection ability on gastrin-17,gastrin-17 [5]; 5% [v/v],both exhibit protection ability
same,"signal stability over time (MassSpec peak area), gastrin-17","gastrin-17 [5]; FIG. 1, 5% [v/v] vs no additive and 5% DMSO",better signal stability over time
same,"concentration dependence of stabilization, peptides A, B and C","peptides A, B and C [6]; 5 h",stabilization increased with the concentration
same,"stabilization of peptides A, B and C","peptides A, B and C [6]",stabilized each of the peptides
same,"overall stabilization compared with DMSO, peptides A, B and C","peptides A, B and C [6]; 1.25-5% (v/v), 5 h",overall better peptide stabilization ability
same,stability against oxidation compared with DMSO,[2],more stable against oxidation than DMSO
same,stability of Sulfolane compared with DMSO based upon oxidation,[2]; no experiment described at the place,more stable than DMSO based upon oxidation
"O=S1(=O)CCCCO1 [1,4-butanesultone]",ability to stabilize gastrin-17 in serum,gastrin-17 [1],have the ability to stabilize peptides
same,stabilizing effect on gastrin-17 compared with DMSO,gastrin-17 [1],superior to the DMSO stabilizing effect
same,stability against oxidation compared with DMSO,[2],more stable against oxidation than DMSO
"C[S+](C)[O-] [DMSO, dimethylsulfoxid, reference compound]","protection ability on different peptides (A, B, C)","peptides A, B and C [3]; 5% [v/v]",both exhibit protection ability
same,"concentration dependence of stabilization, gastrin-17",gastrin-17 [4]; 5 h,stabilization increased with the concentration
same,stabilization of gastrin-17,gastrin-17 [4],stabilized each of the peptides
same,protection ability on gastrin-17,gastrin-17 [5]; 5% [v/v],both exhibit protection ability
same,"concentration dependence of stabilization, peptides A, B and C","peptides A, B and C [6]; 5 h",stabilization increased with the concentration
same,"stabilization of peptides A, B and C","peptides A, B and C [6]",stabilized each of the peptides
same,oxidation instability,[2]; background statement,rather instable
"CC1CCCS1(=O)=O (stereo not drawn) [methyltetrahydrothiophene 1,1-dioxide, 2-methyltetrahydrothiophene 1,1-dioxide]",ability to stabilize gastrin-17 in serum,gastrin-17 [1],have the ability to stabilize peptides
same,stabilizing effect on gastrin-17 compared with DMSO,gastrin-17 [1],superior to the DMSO stabilizing effect
same,stability against oxidation compared with DMSO,[2],more stable against oxidation than DMSO
O=S1(=O)CCC1 [trimethylene sulfone],ability to stabilize gastrin-17 in serum,gastrin-17 [1],have the ability to stabilize peptides
same,stabilizing effect on gastrin-17 compared with DMSO,gastrin-17 [1],superior to the DMSO stabilizing effect
same,stability against oxidation compared with DMSO,[2],more stable against oxidation than DMSO
"O=S1(=O)CCCN1 [1,1-dioxoisothiazolidine]",ability to stabilize gastrin-17 in serum,gastrin-17 [1],have the ability to stabilize peptides
same,stability against oxidation compared with DMSO,[2],more stable against oxidation than DMSO
"O=S1(=O)CCC(O)CC1 [tetrahydro-2H-thiopyran-4-ol 1,1-dioxide]",ability to stabilize gastrin-17 in serum,gastrin-17 [1],have the ability to stabilize peptides
same,stabilizing effect on gastrin-17 compared with DMSO,gastrin-17 [1],superior to the DMSO stabilizing effect
same,stability against oxidation compared with DMSO,[2],more stable against oxidation than DMSO
